Results: ChEMBL document CHEMBL1201862, “PubChem BioAssay data set” (2004)
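Where inhibition never reached the appropriate level, the endpoint shown equals the highest concentration tested. Otherwise, values were interpolated linearly from a five-concentration, 48-hour dose response in 96-well plates. Abbreviation: GI50, concentration required for 50% inhibition of growth.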 The source made the active and inactive calls. Cut-off read from the data, not from the text of the source: active = GI50 up to about 1.1 µM and inactive = higher.

Key:
Test in all cases: NCI anticancer screen, dose series, 48 h
A498 = tested on: A498
PC-3 = tested on: PC-3
HCT-15 = tested on: HCT-15
CCRF-CEM = tested on: CCRF-CEM
RXF 393 = tested on: RXF 393
SR = tested on: SR
UACC-257 = tested on: UACC-257
NCI-H460 = tested on: NCI-H460
IGROV-1 = tested on: IGROV-1
SK-MEL-5 = tested on: SK-MEL-5
MOLT-4 = tested on: MOLT-4
SK-MEL-28 = tested on: SK-MEL-28
HCC 2998 = tested on: HCC 2998
786-0 = tested on: 786-0
HOP-92 = tested on: HOP-92
OVCAR-8 = tested on: OVCAR-8
SK-OV-3 = tested on: SK-OV-3
TK-10 = tested on: TK-10
HOP-62 = tested on: HOP-62
UACC-62 = tested on: UACC-62
OVCAR-3 = tested on: OVCAR-3
KM12 = tested on: KM12
SN12C = tested on: SN12C
OVCAR-5 = tested on: OVCAR-5
K562 = tested on: K562
SNB-19 = tested on: SNB-19
MCF7 = tested on: MCF7
HT-29 = tested on: HT-29
NCI-H23 = tested on: NCI-H23
MDA-MB-231 = tested on: MDA-MB-231
NCI/ADR-RES = tested on: NCI/ADR-RES
U-251 = tested on: U-251
EKVX = tested on: EKVX
Hs-578T = tested on: Hs-578T
MDA-MB-435 = tested on: MDA-MB-435
OVCAR-4 = tested on: OVCAR-4
CAKI-1 = tested on: CAKI-1
ACHN = tested on: ACHN
Malme-3M = tested on: Malme-3M
SF-295 = tested on: SF-295
BT-549 = tested on: BT-549
HCT-116 = tested on: HCT-116
HL-60 = tested on: HL-60
A549 = tested on: A549
SNB-75 = tested on: SNB-75
SW-620 = tested on: SW-620
NCI-H226 = tested on: NCI-H226
UO-31 = tested on: UO-31
SK-MEL-2 = tested on: SK-MEL-2
SF-539 = tested on: SF-539
M14 = tested on: M14
MDA-N = tested on: MDA-N
COLO 205 = tested on: COLO 205
LOX IMVI = tested on: LOX IMVI

Measured: GI50

C=C(CC[C@@H](C)[C@H]1CC[C@@]2(C)C3=C(CC[C@]12C)[C@@]1(C)CC[C@H](O)[C@@H](C)C1CC3)C(C)C (stereo partly drawn)
1200 nM: HCT-15
inactive: A498 1410 nM | RXF 393 1370 nM | UACC-257 1490 nM | IGROV-1 2350 nM | SK-MEL-5 1260 nM | SK-MEL-28 1280 nM | HCC 2998 1530 nM | HOP-92 1180 nM | OVCAR-8 1610 nM | SK-OV-3 1600 nM | TK-10 1350 nM | UACC-62 1430 nM | OVCAR-3 1770 nM | KM12 1260 nM | SN12C 1440 nM | OVCAR-5 1420 nM | SNB-19 2170 nM | MCF7 1470 nM | NCI-H23 1280 nM | MDA-MB-231 1500 nM | NCI/ADR-RES 1400 nM | U-251 1390 nM | EKVX 1230 nM | Hs-578T 1600 nM | MDA-MB-435 1320 nM | OVCAR-4 1600 nM | CAKI-1 1150 nM | ACHN 1380 nM | Malme-3M 1290 nM | BT-549 1480 nM | HCT-116 1310 nM | A549 1200 nM | SNB-75 1250 nM | SW-620 1710 nM | NCI-H226 1810 nM | UO-31 1230 nM | SK-MEL-2 1560 nM | SF-539 1470 nM | M14 1170 nM | MDA-N 1170 nM | COLO 205 1170 nM
active: PC-3 1070 nM | CCRF-CEM 414 nM | SR 1010 nM | NCI-H460 679 nM | MOLT-4 953 nM | 786-0 984 nM | HOP-62 879 nM | K562 273 nM | HT-29 480 nM | SF-295 1080 nM | HL-60 361 nM | LOX IMVI 906 nM

O=P(O)(O)OC1C(OP(=O)(O)O)C(OP(=O)(O)O)C(OP(=O)(O)O)C(OP(=O)(O)O)C1OP(=O)(O)O (stereo not drawn)
inactive: CCRF-CEM > 995000 nM | HOP-92 > 923000 nM | EKVX > 560000 nM | OVCAR-4 > 875000 nM
